This is an account of results in patent publication US12384777B2 (Tay Therapeutics Limited, priority 2019, dated 2025).

For series [1], the target named is BRD4 BD1 (Homo sapiens (Human), UniProt O60885). Briefly: Bromodomain binding assay (T7 phage display, qPCR), BRD4 BD1. To be noted: read-out: BRD4 BD1 Kd. How it is done:
T7 phage strains displaying bromodomains were grown in parallel in 24-well blocks in an E. coli host derived from the BL21 strain. E. coli were grown to log-phase and infected with T7 phage from a frozen stock (multiplicity of infection=0.4) and incubated with shaking at 32° C. until lysis (90-150 min). The lysates were centrifuged (5,000×g) and filtered (0.2 μm) to remove cell debris. Streptavidin-coated magnetic beads were treated with biotinylated small molecule or acetylated peptide ligands for 30 min at RT to generate affinity resins for bromodomain assays. The ligated beads were blocked with excess biotin and washed with blocking buffer (SeaBlock (Pierce), 1% BSA, 0.05% Tween 20, 1 mM DTT) to remove unbound ligand and to reduce non-specific phage binding. Binding reactions were assembled by combining bromodomains, ligated affinity beads, and test compounds in 1× binding buffer (16% SeaBlock, 0.32×PBS, 0.02% BSA, 0.04% Tween 20, 0.004% Sodium azide, 7.9 mM DTT). Test compounds were prepared as 1000× stocks in 100% DMSO and subsequently diluted 1:25 in MEG. The compounds were then diluted directly into the assays such that the final concentrations of DMSO and MEG were 0.1% and 2.4%, respectively. All reactions were performed in polypropylene 384-well plates in a final volume of 0.02 ml. The assay plates were incubated at RT with shaking for 1 hr and the affinity beads were washed with wash buffer (1×PBS, 0.05% Tween 20). The beads were then re-suspended in elution buffer (1×PBS, 0.05% Tween 20, 2 μM non-biotinylated affinity ligand) and incubated at RT with shaking for 30 min. The bromodomain concentration in the eluates was measured by quantitative polymerase chain reaction (qPCR).
An 11-point 3-fold serial dilution of each test compound was prepared in 100% DMSO at 1000× final test concentration. All compounds were distributed by acoustic transfer (non-contact dispensing) in 100% DMSO. The compounds were then diluted directly into the assays such that the final concentration of DMSO was 0.09%. Most dissociation constants were determined using a compound top concentration=10,000 nM. If the initial dissociation constant determined was <0.169 nM (the lowest concentration tested), the measurement was repeated with a serial dilution starting at a lower top concentration.
The same bromodomain assay procedure as that outlined above was used. Example compounds were screened at 30 times their Kd, and results for primary screen binding interactions are reported as ‘% Ctrl’, where lower numbers indicate stronger hits in the matrix.

The test system of series [2] is human liver hepatocytes. Briefly: Intrinsic clearance in human liver hepatocytes. To be noted: human cryopreserved hepatocytes, 0.5 μM test compound. The series is classed as in vitro ADME. On the procedure: Vials of human cryopreserved hepatocytes, supplied by Life Technologies, were thawed according to manufacturer's instructions and cells re-suspended in Williams Medium E (WME) containing cell maintenance supplement pack (CM4000, Life Technologies). Hepatocytes were incubated in suspension (0.5 million cells/mL) in 48 well non-collagen coated cell culture plates for 10 min at 37° C., 5% CO2. Upon addition of an equal volume of supplemented WME containing 1 μM test compound, an aliquot of incubation solution was removed to acetonitrile containing internal standard (final concentration 0.5 μM test compound and a cell density of 0.25 million cells/mL). Similarly, aliquots were removed at 3, 6, 9, 15, 30, 45, 60, 90 and 120 min. 100 μL of 80:20 water:acetonitrile was added to all samples and the analysis plate was centrifuged for 10 min at RT prior to injection and analysis of samples by UPLC-MS/MS. The response (area ratio of test compound to internal standard) was plotted against time using an exponential decay model from which rate of disappearance was calculated.

Some results are limits rather than exact numbers.

As for `Cn1cc(Oc2ccc(O)cc2)c(-c2cn(C)c(=O)c3[nH]ccc23)cc1=O` [Example 26, 4-(5-(4-hydroxyphenoxy)-1-methyl-2-oxo-1,2-dihydropyridin-4-yl)-6-methyl-1,6-dihydro-7H-pyrrolo[2,3-c]pyridin-7-one], the Kd in series [1] lay in the range of 10 to 100 nM. For the same compound, in series [2], the “Intrinsic clearance, % Liver Blood Flow” value is below 34 % Liver Blood Flow. Turning to `Cn1cc(-c2ncnn2Cc2ccccc2)c2cc[nH]c2c1=O` [Example 16, 4-(1-benzyl-1H-1,2,4-triazol-5-yl)-6-methyl-1,6-dihydro-7H-pyrrolo[2,3-c]pyridin-7-one], the Kd in series [1] was 100 to 1000 nM. For the compound `Cn1cc(-c2cc(=O)n(C)cc2Oc2cccc(O)c2)ccc1=O` [Example 29, 5′-(3-hydroxyphenoxy)-1,1′-dimethyl-[3,4′-bipyridine]-2′,6(1H,1′H)-dione], the dissociation constant Kd in series [1] lay within 10 to 100 nM. Moreover, in series [2], the “Intrinsic clearance, % Liver Blood Flow” value is recorded as below 34 % Liver Blood Flow. As for `Cn1cc(Cc2ccccc2)c(-c2cn(C)c(=O)c3[nH]ccc23)cc1=O` [Example 13, 4-(5-benzyl-1-methyl-2-oxo-1,2-dihydropyridin-4-yl)-6-methyl-1,6-dihydro-7H-pyrrolo[2,3-c]pyridin-7-one], in series [1], the Kd was 100 to 1000 nM. In series [2], the “Intrinsic clearance, % Liver Blood Flow” value is recorded as 34 % Liver Blood Flow.

As for `COc1ccc(Oc2cn(C)c(=O)cc2-c2cn(C)c(=O)c3[nH]ccc23)cc1` [Example 25, 4-(5-(4-methoxyphenoxy)-1-methyl-2-oxo-1,2-dihydropyridin-4-yl)-6-methyl-1,6-dihydro-7H-pyrrolo[2,3-c]pyridin-7-one], in series [1], the Kd is 10 to 100 nM. In addition, the “Intrinsic clearance, % Liver Blood Flow” value in series [2] was determined as 38 % Liver Blood Flow.

Take `COc1ccc(Oc2cn(C)c(=O)cc2-c2ccc(=O)n(C)c2)cc1` [Example 27, 5′-(4-methoxyphenoxy)-1,1′-dimethyl-[3,4′-bipyridine]-2′,6(1H,1′H)-dione]: the equilibrium dissociation constant (Kd) in series [1] fell in the range of 100 to 1000 nM. Also, in series [2], the “Intrinsic clearance, % Liver Blood Flow” value is listed as below 34 % Liver Blood Flow. Consider `COc1cccc(Oc2c(-c3cn(C)c(=O)c4[nH]ccc34)ccn(C)c2=O)c1` [Example 32, 4-(3-(3-methoxyphenoxy)-1-methyl-2-oxo-1,2-dihydropyridin-4-yl)-6-methyl-1,6-dihydro-7H-pyrrolo[2,3-c]pyridin-7-one], for which the Kd in series [1] lay within 10 to 100 nM. The “Intrinsic clearance, % Liver Blood Flow” value in series [2] is on record as below 34 % Liver Blood Flow. `Cn1ccc(-c2cn(C)c(=O)c3[nH]ccc23)c(Oc2cccc(O)c2)c1=O` [Example 33, 4-(3-(3-hydroxyphenoxy)-1-methyl-2-oxo-1,2-dihydropyridin-4-yl)-6-methyl-1,6-dihydro-7H-pyrrolo[2,3-c]pyridin-7-one]: the Kd in series [1] is at most 10 nM. Further, the “Intrinsic clearance, % Liver Blood Flow” value in series [2] is reported as below 34 % Liver Blood Flow. For the compound `Cn1ccc(-c2cn(C)c(=O)c3[nH]ccc23)c(Oc2ccccc2O)c1=O` [Example 31, 4-(3-(2-hydroxyphenoxy)-1-methyl-2-oxo-1,2-dihydropyridin-4-yl)-6-methyl-1,6-dihydro-7H-pyrrolo[2,3-c]pyridin-7-one], the Kd in series [1] is 10 to 100 nM. For the same compound, the “Intrinsic clearance, % Liver Blood Flow” value in series [2] is reported as below 34 % Liver Blood Flow.

Consider `Cn1cc(-c2ccnn2Cc2ccccc2)c2cc[nH]c2c1=O` [Example 14, 4-(1-benzyl-1H-pyrazol-5-yl)-6-methyl-1,6-dihydro-7H-pyrrolo[2,3-c]pyridin-7-one], for which the Kd in series [1] lay within 100 to 1000 nM. On to `Cn1cc(-c2nccn2Cc2ccccc2)c2cc[nH]c2c1=O` [Example 15, 4-(1-benzyl-1H-imidazol-2-yl)-6-methyl-1,6-dihydro-7H-pyrrolo[2,3-c]pyridin-7-one], for which the dissociation constant Kd in series [1] lay within 100 to 1000 nM. As for `Cn1ccc(-c2cn(C)c(=O)c3[nH]ccc23)c(Oc2ccc(O)cc2)c1=O` [Example 35, 4-(3-(4-hydroxyphenoxy)-1-methyl-2-oxo-1,2-dihydropyridin-4-yl)-6-methyl-1,6-dihydro-7H-pyrrolo[2,3-c]pyridin-7-one], in series [1], the dissociation constant Kd fell in the range of 10 to 100 nM.

`Cn1cc(-c2ccn(C)c(=O)c2Oc2cccc(O)c2)ccc1=O` [Example 37, 3′-(3-hydroxyphenoxy)-1,1′-dimethyl-[3,4′-bipyridine]-2′,6(1H,1′H)-dione]: the Kd in series [1] lay within 100 to 1000 nM. As to `Cn1cc(-c2scnc2Cc2ccccc2)c2cc[nH]c2c1=O` [Example 17, 4-(4-benzylthiazol-5-yl)-6-methyl-1,6-dihydro-7H-pyrrolo[2,3-c]pyridin-7-one], the Kd in series [1] was in the range of 10 to 100 nM.

Take `Cn1cc(-c2scnc2Oc2ccccc2O)ccc1=O` [Example 21, 5-(4-(2-hydroxyphenoxy)thiazol-5-yl)-1-methylpyridin-2(1H)-one]: the dissociation constant Kd in series [1] was 100 to 1000 nM. Consider `Cn1cc(-c2scnc2Oc2ccccc2O)c2cc[nH]c2c1=O` [Example 19, 4-(4-(2-hydroxyphenoxy)thiazol-5-yl)-6-methyl-1,6-dihydro-7H-pyrrolo[2,3-c]pyridin-7-one], for which, in series [1], the dissociation constant Kd lay within 100 to 1000 nM. `COc1cccc(Oc2cn(C)c(=O)cc2-c2cn(C)c(=O)c3[nH]ccc23)c1` [Example 23, 4-(5-(3-methoxyphenoxy)-1-methyl-2-oxo-1,2-dihydropyridin-4-yl)-6-methyl-1,6-dihydro-7H-pyrrolo[2,3-c]pyridin-7-one]: in series [1], the Kd was 10 to 100 nM. Moreover, the “Intrinsic clearance, % Liver Blood Flow” value in series [2] was determined as 38 % Liver Blood Flow. In the case of `Cn1cc(-c2ccn(C)c(=O)c2Oc2ccccc2O)ccc1=O` [Example 36, 3′-(2-hydroxyphenoxy)-1,1′-dimethyl-[3,4′-bipyridine]-2′,6(1H,1′H)-dione], the Kd in series [1] was in the range of 100 to 1000 nM. On to `COC1CCC(Oc2ccc(O)cc2-c2cn(C)c(=O)c3[nH]ccc23)CC1` (stereo not shown) [Example 12, 4-(5-hydroxy-2-((4-methoxycyclohexyl)oxy)phenyl)-6-methyl-1,6-dihydro-7H-pyrrolo[2,3-c]pyridin-7-one], for which, in series [1], the Kd was at most 10 nM. In series [2], the “Intrinsic clearance, % Liver Blood Flow” value is 82 % Liver Blood Flow. In the case of `Cn1cc(-c2cc(O)ccc2OC2CCCCC2)c2cc[nH]c2c1=O` [Example 11, 4-(2-(cyclohexyloxy)-5-hydroxyphenyl)-6-methyl-1,6-dihydro-7H-pyrrolo[2,3-c]pyridin-7-one], the equilibrium dissociation constant (Kd) in series [1] is at most 10 nM. Moreover, the “Intrinsic clearance, % Liver Blood Flow” value in series [2] was found to be 97 % Liver Blood Flow. Consider `Cn1cc(-c2ccn(C)c(=O)c2Oc2ccc(O)cc2)ccc1=O` [Example 38, 3′-(4-hydroxyphenoxy)-1,1′-dimethyl-[3,4′-bipyridine]-2′,6(1H,1′H)-dione], for which, in series [1], the dissociation constant Kd is 100 to 1000 nM.

For the compound `CCCOc1ccc(O)cc1-c1cn(C)c(=O)c2[nH]ccc12` [Example 9, 4-(5-hydroxy-2-propoxyphenyl)-6-methyl-1,6-dihydro-7H-pyrrolo[2,3-c]pyridin-7-one], in series [1], the dissociation constant (Kd) was 10 to 100 nM. In series [2], the “Intrinsic clearance, % Liver Blood Flow” value came out at 95 % Liver Blood Flow. Regarding `Cn1cc(Oc2ccccc2O)c(-c2cn(C)c(=O)c3[nH]ccc23)cc1=O` [Example 22, 4-(5-(2-hydroxyphenoxy)-1-methyl-2-oxo-1,2-dihydropyridin-4-yl)-6-methyl-1,6-dihydro-7H-pyrrolo[2,3-c]pyridin-7-one], the Kd in series [1] was in the range of 100 to 1000 nM. Also, in series [2], the “Intrinsic clearance, % Liver Blood Flow” value was below 34 % Liver Blood Flow. Turning to `Cn1cc(-c2cc(=O)n(C)cc2Oc2ccc(O)cc2)ccc1=O` [Example 28], the dissociation constant Kd in series [1] fell in the range of 100 to 1000 nM. The “Intrinsic clearance, % Liver Blood Flow” value in series [2] is listed as below 34 % Liver Blood Flow. In the case of `COc1ccccc1Oc1c(-c2cn(C)c(=O)c3[nH]ccc23)ccn(C)c1=O` [Example 30, 4-(3-(2-methoxyphenoxy)-1-methyl-2-oxo-1,2-dihydropyridin-4-yl)-6-methyl-1,6-dihydro-7H-pyrrolo[2,3-c]pyridin-7-one], the Kd in series [1] was in the range of 10 to 100 nM. Moreover, the “Intrinsic clearance, % Liver Blood Flow” value in series [2] is given as below 34 % Liver Blood Flow.
